Data on two molecules can be found in ChEMBL document CHEMBL1146724, “Enzyme cleavable and biotinylated photoaffinity ligand with diazirine” (Bioorg Med Chem Lett, 2004).

The nature of the test: Km was determined.

Usually Km stands for the substrate concentration at which the rate is half of its maximum. Regarding `N[C@@H](Cc1ccccc1)C(=O)Nc1ccc([N+](=O)[O-])cc1`, the Km was found to be 750 µM.
For `CC(=O)CCCC[C@@H]1SCC2NC(=O)NC21` (some centres not stated), the Km worked out at 175 µM.
